Patent publication US20230105693A1, “ANTIMICROBIAL COMPOSITIONS” (Firmenich SA, priority 2020, published 2023)
Where two headings read alike, the source gives them in different places.

Tests used:
[1] = Equivalent alkane carbon number (EACN) in model microemulsion system; assay type: physicochemical; details: C10E5/water/isopropyl myristate model system, 3% wt perfume ingredient
Protocol: EACN values provide information on polarity and surface activity of apolar ingredients. Tchakalova and Fieber (J. of Surfactants and Detergents, 2012, 15(2):167-177) classified perfume ingredients based on values of EACNmix, the EACN of a mixture consisting of a test perfume ingredient and a reference oil (isopropyl myristate). The same model system and method were used to measure the EACN values of perfume ingredients with antimicrobial activities. Different perfume ingredients were added to the model microemulsion system shown in Table 1, in which the nonionic pentaethylene glycol mono n-decyl ether (C10E5) was used as surfactant. Phase transition temperatures of the system from Winsor I to Winsor III, and from Winsor III to Winsor II were determined using a water bath. Alkanes with different alkane carbon numbers (octane, decane, dodecane and hexadecane) were used to establish a linear correlation curve between EACN and the PIT, which is the average of the transitions from Winsor I to Winsor III, and from Winsor III to Winsor II, respectively. EACNmix was then calculated based on the linear relationship and the measured PIT for systems containing different perfume ingredients. The EACN of the pure perfume ingredient was calculated based on the molar ratio of the tested PRMs in the oil phase using following equation: […]
wherein n and nref are the molar fractions of tested perfume ingredient and the reference ingredient (i.e., isopropyl myristate) in the oil phase, respectively.

physchem = assay type: physicochemical
Protocol: The partition coefficient (P) is defined as the ratio of the concentrations (C) to the equilibrium of a dissolved and highly diluted substance in a biphasic system consisting of two almost immiscible solvents.
In the case of n-octanol and water:
The partition coefficient P is the quotient of two concentrations, it is generally indicated in its logarithmic form, base 10 (LogP).
The log P values of different perfume ingredients were measured using standard high performance liquid chromatography method, according to the reference (OECD, guideline No. 117, adopted on 13 Apr. 2004, Partition coefficient (n-octanol-water), High Performance Liquid Chromatography (HPLC) Method).

[2] = test system: Escherichia coli ATCC 10536; experiment: Robotic BCT test of perfume ingredients in model surfactant bases; assay type: cell-based; details: for log reduction at 0.5 %: Escherichia coli, ATCC10536, 45 s; for Log reduction (Log CFU/mL) Base 3: Base 3: SLES 1.5%, coco-glucoside 0.75%; for Log reduction (Log CFU/mL) Base 4: Base 4: SLES 2.25%, sodium xylene sulfonate 3%
Protocol: The surfactant bases tested included 1) sodium lauryl ether sulfate (SLES) and cocamidopropyl betaine (CAPB) at 3:1 mass ratios; 2) SLES, CAPB and coco-glucoside at 2:1:1 mass ratios. Test samples were prepared by mixing perfume ingredients with the surfactant bases and vigorously stirred for 24 hrs. Concentration of perfume ingredients in the bases was 0.5% wt. Samples with transparent appearance were selected for antimicrobial testing.
Antimicrobial efficacy was tested against a representative Gram-negative bacterial strain, Escherichia coli ATCC 10536, using robotic bacteria contact time (BCT) test based on European standard EN-1276 and EP2787827(B1).
Preparation of screening plate and dilution plate: Aliquots (270 µl) of compositions were dispensed into the wells of a 96-well microtiter plate (MTP) along two columns (B1-H1, and B7-H7), and 270 µl of MilliQ water was added to well A1 and A7 as the control samples. This MTP was labelled as the “Screening plate”. In another MTP, labelled as the “Dilution plate”, 270 µL of Dey-Engley (D/E) neutralizing solution was added to column 1 and column 7. 270 µl of tryptone diluent solution was added to columns 2-6 and columns 8-12 of the Dilution MTP by a Hamilton robotic liquid handling station.
BCT test & neutralization & dilution: Bacterial stock (30 µl) was then added to columns 1 of the ‘Screening plate’ and mixed by a Hamilton robotic liquid handling station. After a contact time of 45 seconds, 30 µl of the mixtures in column 1 were transferred into the corresponding wells of column 1 of the ‘Dilution plate’. After neutralizing for 5 minutes in the D/E neutralizing solution, 30 µl of the neutralized mixtures were transferred from column 1 to column 2 of the Dilution MTP and mixed, followed by transferring 30 µl of the mixtures from column 2 into column 3. This process was repeated serially diluting the bacteria suspensions across the plate to column 6. Bacterial stock (30 µl) was then added to columns 7 of the ‘Screening plate’ and mixed by a Hamilton robotic liquid handling station. After a contact time of 45 seconds, 30 µl of the mixtures in column 7 were transferred into the corresponding wells of column 7 of the ‘Dilution plate’. After neutralizing for 5 minutes in the D/E neutralizing solution, 30 µl of the mixtures were transferred from column 7 to column 8 of the Dilution MTP and mixed, followed by transferring further 30 µl mixtures from column 8 into column 9. This process was repeated serially diluting the bacteria suspensions across the plate to column 12.
Plating: 30 µl volumes from each well in the Dilution MTP were transferred onto four Tryptone Soya Agar (TSA) plates. The TSA plates were allowed to stand for about two hours so that the 30 µl inocula spots could dry and the plates were then inverted and incubated overnight at 37° C. for 24 hours. After incubation, colonies were counted.
Calculating log reduction: Select the dilutions with colony counts, and calculate the viable cell counts (CFU/mL) of mixture in ‘Screening plate’, and log reduction against the control MilliQ sample was calculated.

[3] = 0.5% perfume ingredient, Base 1: SLES 1.875%, CAPB 0.625%, contact 45 s, read-out: Log reduction in Base 1 (Log CFU/mL)
[4] = 0.5% perfume ingredient, CAPB 0.75%, contact 45 s
[5] = 0.5% perfume ingredient, Base 2: SLES 2.25%, CAPB 0.75%, contact 45 s, read-out: Log reduction (Log CFU/mL) Base 2
[6] = model base 1, table by functional group, read-out: Log reduction in Base 1 (Log CFU/mL)
[7] = n-octanol/water, HPLC method, read-out: Log P
[8] = model base 1, table by functional group
[9] = 0.5% perfume ingredient, Base 1: SLES 1.875%, CAPB 0.625%, contact 45 s
[10] = 0.5% perfume ingredient, Base 2: SLES 2.25%, CAPB 0.75%, contact 45 s

Row | Compound | EACN [1] | log reduction at 0.5 % [2, 3] | chromatographic logP (physchem; [7]) | further results
1 | CC1=CC[C@H]([C@H](C)CCO)CC1 (single isomer, unassigned) | -34.57 |  |  | Log P (physchem): 3.46
2 | CC(C)c1ccc(CO)cc1 [4-isopropyl-1-benzenemethanol] | -36.04 | 1.3 |  | chromatographic logP (physchem): 2.23
3 | CC(CCO)CCc1ccccc1 (racemic) [(+-)-3-methyl-5-phenyl-1-pentanol] | -37.05 | 5 ± 2.1 |  | Log reduction (Log CFU/mL) Base 3 [2, 4]: 2.9 Log CFU/mL; Log reduction (Log CFU/mL) Base 4 [2, 4]: 2.8 Log CFU/mL; log reduction at 0.5 % [2, 5]: 0; log reduction at 0.5 % [2, 6]: 4.3; chromatographic logP (physchem): 3
4 | O=C1CCC[C@H]2[C@@H]1[C@H]1C=C[C@@H]2C1 (racemic) [(1RS,2SR,7RS,8SR)-tricyclo[6.2.1.0^~2,7^~]undec-9-en-3-one OR (1RS,2RS,7S,8SR)-tricyclo[6.2.1.0^~2, 7^~] undec-9-en-3-one] | -5.81 |  |  | Log P (physchem): 2.53
5 | C/C(C=O)=C\c1ccccc1 [(2E)-2-methyl-3-phenyl-2-propenal] | -12.17 |  |  | log reduction at 0.5 % [2, 6]: 3.7; chromatographic logP (physchem): 2.56
6 | CCCc1ccc(O)c(OC)c1 [2-methoxy-4-propyl phenol] | -34.16 |  | 2.39 | 
7 | CC(C)(O)Cc1ccccc1 [2-methyl-1-phenyl-2-propanol] | -17.89 | -0.1 | 1.84 | 
8 | COC(=O)c1ccccc1N [methyl 2-aminobenzoate] | -22.57 |  | 1.83 | 
9 | Cc1ccc(O)cc1 [4-methylphenol] | <-21.95 | 0.1 |  | chromatographic logP (physchem): 1.52
10 | OC/C=C/c1ccccc1 [(2E)-3-phenyl-2-propen-1-ol] | < -28.19 | 0.1 |  | chromatographic logP (physchem): 1.79
11 | C=CCc1ccc(O)c(OC)c1 [2-methoxy-4-(2-propen-1-yl)phenol] | -31.24 | 0.2 | 2.14 | 
12 | CC/C(CC(C)CC)=N/O (racemic) [(+-)-(3Z)-5-methyl-3-heptanone oxime OR (+-)-(3E)-5-methyl-3-heptanone oxime] | -13.67 |  |  | Log reduction in Base 1 (Log CFU/mL) [2, 8]: 3.3 Log CFU/mL; Log P (physchem): 2.45
13 | CC(C)(O)CCc1ccccc1 [2-methyl-4-phenyl-2-butanol] | -24.94 | -0.4 | 2.69 | 
14 | CCCc1cccc(O)c1 [3-propylphenol] | <-29.09 | > 5.5 | 2.1 | log reduction at 0.5 % [2, 6]: > 5.5
15 | c1ccc2[nH]ccc2c1 [indole] | <-24.93 |  | 1.74 | log reduction at 0.5 % ([2]; read-out: Log reduction in Base 1 (Log CFU/mL)): 1.9
16 | CCOC(=O)/C=C/c1ccccc1 [Ethyl(E)-3-phenyl-2-propenoate] |  | 1.9 ± 1 | 3 | Log reduction (Log CFU/mL) Base 3 [2, 4]: Insoluble; Log reduction (Log CFU/mL) Base 4 [2, 4]: Insoluble; log reduction at 0.5 % [2, 5]: 0
17 | CCC(C)(O)CCCC(C)C (racemic) [(+-)-3,7-dimethyl-3-octanol] | -4.83 | 1.9 ± 1.6 | 3.78 | Log reduction (Log CFU/mL) Base 3 [2, 4]: 0.3 Log CFU/mL; Log reduction (Log CFU/mL) Base 4 [2, 4]: 0.4 Log CFU/mL; log reduction at 0.5 % [2, 5]: 0
18 | C=C(C)[C@@H]1CC=C(CO)CC1 [(-)-(S)-1,8-P-menthadien-7-ol] | -30.83 |  |  | Log reduction in Base 1 (Log CFU/mL) [2, 9]: 4.2 ± 0.1 Log CFU/mL; Log reduction (Log CFU/mL) Base 2 [2, 10]: 0 Log CFU/mL; Log reduction (Log CFU/mL) Base 3 [2, 4]: 1.4 Log CFU/mL; Log reduction (Log CFU/mL) Base 4 [2, 4]: 2.2 Log CFU/mL; Log reduction in Base 1 (Log CFU/mL) [2, 8]: 4.2 Log CFU/mL; Log P (physchem): 2.68
19 | CCC/C=C/COC(C)=O [(E)-2-hexenyl acetate] | 1.12 |  | 2.59 | 
20 | O=C/C=C/c1ccccc1 [(E)-3-Phenyl-2-propenal] | -13.35 | > 3 |  | log reduction at 0.5 % [2, 6]: 5.1; chromatographic logP (physchem): 1.5
21 | CCCCCC1CCC(=O)O1 (racemic) [(+-)-4-nonanolide] | -11.24 |  | 2.45 | 
22 | 2 /3 //4-(5,5,6-trimethylbicyclo[2.2.1]hept-2-yl)-1-cyclohexanol(A/B/C) + 2-(1,7,7-trimethylbicyclo[2.2.1]hept-2-yl)-1-cyclohexanol (D) | -16.52 |  |  | Log reduction in Base 1 (Log CFU/mL) [2, 9]: 0.4 Log CFU/mL; Log reduction (Log CFU/mL) Base 2 [2, 10]: -1.0 Log CFU/mL; Log reduction (Log CFU/mL) Base 3 [2, 4]: Insoluble; Log reduction (Log CFU/mL) Base 4 [2, 4]: -0.2 Log CFU/mL; Log P (physchem): 5.23
23 | CCC/C=C/CO [(2E)-2-hexen-1-ol] | -21.91 | -0.2 |  | chromatographic logP (physchem): 1.73
24 | N#C/C=C/c1ccccc1 [(E)-3-phenyl-2-propenenitrile] | -14.36 |  | 1.98 | 
25 | CC/C=C\CCCCCO [(Z)-6-nonen-1-ol] | -29.91 |  |  | Log P (physchem): 3.4
26 | CC1=C(C=O)C(C)(C)CC=C1 [2,6,6-trimethyl-1,3-cyclohexadiene-1-carbaldehyde] | -6.62 |  | 2.57 | 
27 | CCCCCCC1CCC(=O)O1 (racemic) [(+-)-4-decanolide] | -4.96 | 0.2 ± 0.3 | 3.02 | Log reduction (Log CFU/mL) Base 3 [2, 4]: 0.6 Log CFU/mL; Log reduction (Log CFU/mL) Base 4 [2, 4]: 0.25 Log CFU/mL; log reduction at 0.5 % [2, 5]: 0
28 | C=C/C(C)=C\CC1OC1(C)C (racemic) [(+-)-(2,2-dimethyl-3-[(2Z)-3-methyl-2,4-pentadien-1-yl]oxirane OR (+-)-(2,2-dimethyl-3-[(2E)-3-methyl-2,4-pentadien-1-yl]oxirane] | -1.45 |  |  | Log P (physchem): 2.92
29 | C/C(=C\c1ccc(C)cc1)CO [(2E)-2-methyl-3-(4-methylphenyl)-2-propen-1-ol] | -36.15 |  | 2.29 | 
